Results as given in patent publication US7691904B2, “pH sensitive prodrugs of 2,6-diisopropylphenol” (Auspex Pharmaceuticals, Inc, priority 2003, dated 2010).

Key:
Female mice = assay: In-vivo induction of anesthesia (graded sedation level after IP injection)
Description: Prodrugs were formulated as aqueous isotonic solutions at pH 7.4 in sterile water before administration to animals. Female mice were obtained from Charles River Laboratories (Wilmington, Mass.). The volume of injection was set at […] and animals were dosed IP at 100 mg/kg, 125 mg/kg, 150 mg/kg and 200 mg/kg. The monitoring of distinguishable levels of sedation started immediately after an injection and was continued for a 2-h period post-injection. The sedation level was graded according to the behavioral and reflex activity of animals injected with progressively increasing doses of each compound. Animals were graded as alert and normal when there was no observable change in their behavior; alert with decreased motor activity when ataxia with some ability to walk was observed; and awake and recumbent when loss of righting reflex occurred. Animals reaching somnolence but retaining response to painful stimuli (toe or tail pinch) were graded as sedated with normal reflexes, whereas animals that lost response to painful stimuli were graded as sedated with decreased reflexes (anesthetic level of sedation). Death resulting from the overdose was also recorded as a last level.

[1] = pH stability in pH=4.1 sodium acetate buffer, analyzed by LC-MS; assay type: physicochemical; conditions: 100 mg in 10 mL pH=4.1 sodium acetate buffer, ambient temperature, 48 hours
Description: A solution was prepared by dissolving 100 mg of N-(2-Piperidin-1-yl-ethyl)-succinamic acid 2,6-diisopropylphenyl ester hydrochloride in 10 mL of pH=4.1 sodium acetate buffer. The buffer was prepared by adding NaOH to a 20% aqueous acetic acid solution until the desired pH was reached. The solution was incubated at ambient temperature and analyzed by LC-MS after 48 hours.

| Compound | Duration of anesthesia (Female mice; 150 mg/kg) | End of anesthesia (time post injection, in parentheses) (Female mice; 150 mg/kg, time post injection) | Full anesthesia (Female mice; 150 mg/kg, time post injection) | Onset of sedation (Female mice; 150 mg/kg, time post injection) | Duration of anesthesia (Female mice; 200 mg/kg) | End of anesthesia (time post injection, in parentheses) (Female mice; 200 mg/kg, time post injection) | Full anesthesia (Female mice; 200 mg/kg, time post injection) | Onset of sedation (Female mice; 200 mg/kg, time post injection) | Duration of anesthesia (Female mice; 100 mg/kg) | Full anesthesia (Female mice; 100 mg/kg) | End of effect (time post injection, in parentheses) (Female mice; 100 mg/kg, time post injection) | Onset of sedation (Female mice; 100 mg/kg, time post injection) | Duration of sedation (Female mice; 125 mg/kg) | Full anesthesia (Female mice; 125 mg/kg) | End of sedation (time post injection, in parentheses) (Female mice; 125 mg/kg, time post injection) | Onset of sedation (Female mice; 125 mg/kg, time post injection) | Decomposition in solution [1] |
| --- | --- | --- | --- | --- | --- | --- | --- | --- | --- | --- | --- | --- | --- | --- | --- | --- | --- |
| CC(C)c1cccc(C(C)C)c1OC(=O)CCC(=O)NCCN1CCCC1.Cl [N-(2-pyrrolidin-1-yl-ethyl)-succinamic acid 2,6-diisopropylphenyl ester hydrochloride] | 10 min | 14 min | 4 min | 2 min | 21 min | 25 min | 4 min | 2 min |  |  |  |  |  |  |  |  |  |
| CC(C)c1cccc(C(C)C)c1OC(=O)CCC(=O)NCCN1CCCCC1.Cl [N-(2-piperidin-1-yl-ethyl)-succinamic acid 2,6-diisopropylphenyl ester hydrochloride] |  |  |  |  | 12 min | 16 min | 5 min | 2 min | 11 min | not reached | 13 min | 2 min | 13 min | not reached | 15 min | 2 min | No trace of decomposition |
